Laboratory results from ChEMBL document CHEMBL3856228, “Design and Synthesis of Pyridone-Containing 3,4-Dihydroisoquinoline-1(2H)-ones as a Novel Class of Enhancer of Zeste Homolog 2 (EZH2) Inhibitors” (J Med Chem, 2016).
Converted amounts (≈) assume the structure as drawn. The source made the active and inactive calls. The rule behind the calls is not given here.

Columns and labels:
[1] = Intrinsic clearance in human liver microsomes at 1 uM after 45 mins in presence of NADPH by LC-MS/MS analysis; type: ADME; details: read-out: CLH
[2] = Lipophilicity, log D of the compound at pH 7.4; details: buffer
[3] = biological target: T1, Histone-lysine N-methyltransferase EZH2 (Homo sapiens, UniProt O75530+Q09028+Q15022+Q15910); assay: Inhibition of wild-type EZH2 (unknown origin) expressed in baculovirus infected SF9 cells co-expressing SUZ12/EED/RbAp48 complex using HeLa cells derived oligonucleosomes as substrate after 60 mins in presence of [3H] SAM by scintillation counting
T1 sequence (Q15910 whole entry, one chain of several): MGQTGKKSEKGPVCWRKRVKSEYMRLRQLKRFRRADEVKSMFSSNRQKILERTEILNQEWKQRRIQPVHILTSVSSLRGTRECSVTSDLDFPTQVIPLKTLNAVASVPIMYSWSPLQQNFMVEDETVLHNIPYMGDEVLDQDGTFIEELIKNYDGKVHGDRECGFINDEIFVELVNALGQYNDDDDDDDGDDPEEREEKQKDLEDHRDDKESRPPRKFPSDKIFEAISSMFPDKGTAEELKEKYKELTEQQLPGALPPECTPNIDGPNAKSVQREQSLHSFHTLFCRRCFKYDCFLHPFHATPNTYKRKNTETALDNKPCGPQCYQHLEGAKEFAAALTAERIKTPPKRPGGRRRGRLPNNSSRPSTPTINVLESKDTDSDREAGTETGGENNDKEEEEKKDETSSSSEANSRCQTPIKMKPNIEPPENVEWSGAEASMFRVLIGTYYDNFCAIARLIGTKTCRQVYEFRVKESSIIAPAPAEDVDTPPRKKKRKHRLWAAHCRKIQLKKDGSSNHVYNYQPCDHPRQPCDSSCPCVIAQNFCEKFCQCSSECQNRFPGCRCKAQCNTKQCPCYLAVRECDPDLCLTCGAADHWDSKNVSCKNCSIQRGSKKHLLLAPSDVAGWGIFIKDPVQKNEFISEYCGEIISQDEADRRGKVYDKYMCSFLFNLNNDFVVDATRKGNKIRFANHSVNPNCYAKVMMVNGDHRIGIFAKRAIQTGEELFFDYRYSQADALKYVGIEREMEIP

[4] = biological target: Histone-lysine N-methyltransferase EZH2 (Homo sapiens, UniProt O75530+Q09028+Q15022+Q15910, Y641N); assay: Inhibition of EZH2 Y641N mutant (unknown origin) expressed in baculovirus infected SF9 cells co-expressing SUZ12/EED/RbAp48 complex using HeLa cells derived oligonucleosomes as substrate after 60 mins in presence of [3H] SAM by scintillation counting
Sequence of Histone-lysine N-methyltransferase EZH2 (Homo sapiens, UniProt O75530+Q09028+Q15022+Q15910, Y641N) (Q15910 whole entry Y641N, one chain of several): as the sequence (Q15910 whole entry, one chain of several) above, with Y641N counted along it

[5] = biological target: Histone-lysine N-methyltransferase EZH2 (Homo sapiens, UniProt Q15910); assay: Inhibition of EZH2 in human KARPAS422 cells assessed as reduction in H3K27Me3 levels after 72 hrs by ELISA; type: cell-based
Sequence of Histone-lysine N-methyltransferase EZH2 (Homo sapiens, UniProt Q15910) (Q15910 whole entry): as the sequence (Q15910 whole entry, one chain of several) above

[6] = Cytotoxicity against human KARPAS422 cells assessed as inhibition of cell proliferation after 72 hrs; type: functional, cell-based; details: KARPAS-422, 72 h
[7] = Permeability in RRCK cells; type: ADME, cell-based, Canis lupus familiaris, MDCKII-LE; details: dog, MDCK; read-out: permeability
KARPAS-422 [8] = assay: Antitumor activity against human KARPAS422 cells xenografted in Scid beige mouse assessed as tumor growth inhibition at 200 to 300 mg/kg, bid for 20 days measured for 3 weeks post last dose; type: functional, organism-based
Mus musculus [9] = assay: In vivo inhibition of EZH2 in human KARPAS422 cells xenografted in Scid beige mouse assessed as reduction in H3K27Me3 levels at 200 mg/kg, bid for 20 days measured 1 to 4 hrs post last dose on day 20 by ELISA; type: functional; details: KARPAS-422
Mus musculus [10] = assay: Toxicity in Scid beige mouse xenografted with human KARPAS422 cells assessed as body weight loss at 200 to 300 mg/kg, bid for 20 days measured during compound dosing; type: organism-based; details: in vivo, 480 h
[11] = Time duration during which free plasma concentration stays above in vitro cell IC90 in mouse at 300 mg/kg; type: ADME, organism-based; details: in vivo
MDR1 [12] = assay: Permeability across apical to basolateral side in MDCK cells expressing MDR1; type: ADME, cell-based, Canis lupus familiaris; details: dog, read-out: permeability
[13] = Kinetic solubility of the compound; type: physicochemical; details: read-out: Kinetic_solubility
KARPAS-422 [14] = assay: Antitumor activity against human KARPAS422 cells xenografted in Scid beige mouse assessed as tumor regression at 200 to 300 mg/kg, bid for 20 days measured on day 20; type: functional, organism-based
Mus musculus [15] = assay: In vivo inhibition of EZH2 in Scid beige mouse xenografted with human KARPAS422 cells assessed as upregulation of TNFRSF21 expression at 300 mg/kg, bid for 20 days measured 1 to 4 hrs post last dose on day 20 relative to control; type: functional
MDR1 [16] = assay: in vitro; details: dog, MDCK-MDR1
Description: Efflux ratio of permeability from basolateral to apical side over apical to basolateral side in MDCK cells expressing MDR1

Mus musculus [17] = assay: In vivo inhibition of EZH2 in Scid beige mouse xenografted with human KARPAS422 cells assessed as upregulation of PRDM1 expression at 200 mg/kg, bid for 20 days measured 1 to 4 hrs post last dose on day 20 relative to control; type: functional
Mus musculus [18] = assay: In vivo inhibition of EZH2 in Scid beige mouse xenografted with human KARPAS422 cells assessed as upregulation of TNFRSF21 expression at 200 mg/kg, bid for 20 days measured 1 to 4 hrs post last dose on day 20 relative to control; type: functional
[19] = Time duration during which free plasma concentration stays at or below in vitro cell IC50 in mouse at 30 to 100 mg/kg; type: ADME, organism-based; details: in vivo
[20] = Intrinsic clearance in mouse liver microsomes at 1 uM after 45 mins in presence of NADPH by LC-MS/MS analysis; type: ADME; details: read-out: CLH
[21] = Protein binding in mouse plasma at 30 to 300 mg/kg; type: ADME, organism-based; details: read-out: PPB (converted)
Mus musculus [22] = assay: In vivo inhibition of EZH2 in Scid beige mouse xenografted with human KARPAS422 cells assessed as upregulation of PRDM1 expression at 300 mg/kg, bid for 20 days measured 1 to 4 hrs post last dose on day 20 relative to control; type: functional
Mus musculus [23] = assay: In vivo inhibition of EZH2 in Scid beige mouse xenografted with human KARPAS422 cells assessed as reduction in H3K27Me3 levels at 300 mg/kg, bid for 20 days measured 1 to 4 hrs post last dose on day 20 by ELISA; type: functional; details: KARPAS-422
KARPAS-422 [24] = assay: Antitumor activity against human KARPAS422 cells xenografted in Scid beige mouse assessed as tumor stasis at 200 to 300 mg/kg, bid for 20 days measured on day 20; type: functional, organism-based
[25] = biological target: T1, Histone-lysine N-methyltransferase EZH2; assay: Binding affinity to EZH2 (unknown origin) expressed in baculovirus infected SF9 cells co-expressing SUZ12/EED/RbAp48 complex by ITC analysis

Compound | microsomal CLint at 1 µM [1] [µL/min/mg] | logD [2] | IC50 [3] [nM] | IC50 [5] [nM] | IC50 [6] [nM] | further results
Cc1cc(C)c(CN2CCc3ccc(OC(C)C)cc3C2=O)c(=O)[nH]1 | 19 | 2.5 |  |  |  | 
COc1cccc(C(=O)NCc2c(C)cc(C)[nH]c2=O)c1C |  | 1.5 | 5700 |  |  | 
Cc1cc(C)c(CN2CCc3c(Cl)cc(-c4cn[nH]c4C)c(Cl)c3C2=O)c(=O)[nH]1 |  | 3.1 | 24 | 873 | 1340 | IC50 [4]: 110 nM
Cc1cc(C)c(CNC(=O)c2cccc(OC(C)C)c2Cl)c(=O)[nH]1 |  | 2 | 1300 |  |  | 
Cc1cc(C)c(CN2CCc3c(Cl)cc(-c4c(C)noc4C)c(Cl)c3C2=O)c(=O)[nH]1 | 107 | 3.1 |  | 15 | 25 | Papp [7]: 15.7 ×10⁻⁶ cm/s; TGI (KARPAS-422 [8]): Active; inhibition in vivo at 200 mg/kg (Mus musculus [9]): 55.5%; Activity (Mus musculus [10]): < 10%; Time [11]: <= 6 hr; Papp A→B (MDR1 [12]): 5.2 ×10⁻⁶ cm/s; solubility kinetic [13]: 93.5 µM (≈ 41.7 µg/mL); Activity (KARPAS-422 [14]): Active; fold change (FC) (Mus musculus [15]): 208.9; efflux ratio (MDR1 [16]): 4.6; Ki [3]: 0.7 nM; fold change (FC) (Mus musculus [17]): 31.6; fold change (FC) (Mus musculus [18]): 99.2; Time [19]: 6 h; microsomal CLint at 1 µM [20]: 531 µL/min/mg; fraction unbound [21]: 0.85; fold change (FC) (Mus musculus [22]): 57.9; inhibition in vivo at 300 mg/kg (Mus musculus [23]): 66.4%; Activity (KARPAS-422 [24]): Active
Cc1cc(C)c(CN2CCc3ccc(OC(C)C)c(C)c3C2=O)c(=O)[nH]1 | 102 |  | 160 |  |  | Kd [25]: 37.4 nM
COc1ccc2c(c1Cl)C(=O)N(Cc1c(C)cc(C)[nH]c1=O)CC2 | 35 | 1.8 |  |  |  | 
COc1ccc2c(c1Cl)C(=O)N(Cc1c(C)cc(C)[nH]c1=O)CCO2 | 40 | 1.3 | 650 |  |  | 
COc1cccc(C(=O)NCc2c(C)cc(C)[nH]c2=O)c1OC |  | 1.7 | > 140000 |  |  | 
COc1cccc(C(=O)NCc2c(C)cc(C)[nH]c2=O)c1Cl | 8 | 1.2 | 7200 |  |  | 
Cc1cc(C)c(CN2CCc3c(Cl)cc(O[C@@H]4CCOC4)c(Cl)c3C2=O)c(=O)[nH]1 | 21 | 2.5 | 5.6 | 170 | 155 | IC50 [4]: 18 nM; Papp [7]: 14.7 ×10⁻⁶ cm/s; Papp A→B (MDR1 [12]): 4.5 ×10⁻⁶ cm/s; solubility kinetic [13]: 26 µM (≈ 11.4 µg/mL); efflux ratio (MDR1 [16]): 4.7; microsomal CLint at 1 µM [20]: 163 µL/min/mg
Cc1cc(C)c(CN2CCc3ccc(-c4c(C)noc4C)c(Cl)c3C2=O)c(=O)[nH]1 |  | 2.6 | 3.2 | 105 | 121 | IC50 [4]: 8.8 nM; Ki [4]: 6.3 nM; Ki [3]: 2 nM
Cc1cc(C)c(CN2CCc3c(Cl)cc(-c4c(C)nn(C)c4C)c(Cl)c3C2=O)c(=O)[nH]1 |  | 3.4 | 1500 | 15300 | 12800 | IC50 [4]: 6000 nM
Cc1cc(C)c(CN2CCc3c(Cl)cc(-c4cn[nH]c4)c(Cl)c3C2=O)c(=O)[nH]1 |  | 3 | 51 | 1730 | 1580 | IC50 [4]: 270 to 271 nM
Cc1cc(C)c(CN2CCc3c(F)cc(O[C@@H]4CCOC4)c(Cl)c3C2=O)c(=O)[nH]1 |  | 2.1 | 56 | 994 | 1030 | IC50 [4]: 260 nM
COc1cccc(C(=O)NCc2c(C)cc(C)[nH]c2=O)c1F |  | 1.4 | > 150000 |  |  | 
Cc1cc(C)c(CNC(=O)c2cccc(OC(C)C)c2C)c(=O)[nH]1 |  | 2.1 | 1400 |  |  | Kd [25]: 252 nM
Cc1cc(C)c(CN2CCc3c(Cl)cc(-c4c(C)n[nH]c4C)c(Cl)c3C2=O)c(=O)[nH]1 |  | 3.4 | 16 | 502 | 959 | IC50 [4]: 82 nM
COc1cccc(C(=O)NCc2c(C)cc(C)[nH]c2=O)c1O |  | 1.9 | 44000 |  |  | 
Cc1cc(C)c(CNC(=O)c2ccccc2C)c(=O)[nH]1 |  |  | > 200000 |  |  | 
Cc1cc(C)c(CN2CCc3ccc(OC(C)C)c(Cl)c3C2=O)c(=O)[nH]1 | 53 to 53.8 | 2.7 |  | 1190 | 1160 | Papp [7]: 19.6 ×10⁻⁶ cm/s; Papp A→B (MDR1 [12]): 7.9 ×10⁻⁶ cm/s; solubility kinetic [13]: 19.6 µM (≈ 7.35 µg/mL)
Cc1cc(C)c(CN2CCc3c(C)cc(O[C@@H]4CCOC4)c(Cl)c3C2=O)c(=O)[nH]1 |  | 2.1 | 18 | 290 | 406 | IC50 [4]: 61 nM
COc1cccc(C(=O)NCc2c(C)cc(C)[nH]c2=O)c1 |  | 1.7 | > 150000 |  |  | 
COc1ccc2c(c1Cl)C(=O)N(Cc1c(C)cc(C)[nH]c1=O)CCC2 | 82 | 1.7 | 150 |  |  | 
CCOc1ccc2c(c1Cl)C(=O)N(Cc1c(C)cc(C)[nH]c1=O)CC2 | 37 | 2.2 |  |  |  | 
Cc1cc(C)c(CN2CCc3ccc(O[C@@H]4CCOC4)c(Cl)c3C2=O)c(=O)[nH]1 | 21 | 1.5 |  | 796 | 512 | Papp [7]: 12.3 ×10⁻⁶ cm/s; Papp A→B (MDR1 [12]): 1.7 ×10⁻⁶ cm/s; solubility kinetic [13]: 510 µM (≈ 205 µg/mL); microsomal CLint at 1 µM [20]: 31 µL/min/mg
CCOc1cccc(C(=O)NCc2c(C)cc(C)[nH]c2=O)c1C |  | 2.1 | 2000 |  |  | 
